Results reported in ChEMBL document CHEMBL4808187, “Antiarrhythmic Hit to Lead Refinement in a Dish Using Patient-Derived iPSC Cardiomyocytes” (J Med Chem, 2021).
The source made the active and inactive calls. The rule behind the calls is not given here.

Columns and labels:
[1] = Antiarrhythmic activity in hiPSC-CMs assessed as fold prolongation of action potential relative to control; settings: human, ipsc-cm
[2] = (§1) Antiarrhythmic activity in patient-derived hiPSC-CMs carrying LQT3 mutation assessed as shortening dose of action potential; assay type: functional, Homo sapiens, iPSC-CM
[3] = Inhibition of potassium channel (unknown origin) expressed in CHO cells assessed as reduction in potassium current by automated patch clamp method; assay type: cell-based
[4] = Antiarrhythmic activity in hiPSC-CMs assessed as cessation dose of cell beating; settings: human, ipsc-cm
[5] = Antiarrhythmic activity in hiPSC-CMs assessed as prolongation of action potential; design: species or system Homo sapiens, iPSC-CM
[6] = Antiarrhythmic activity in patient-derived hiPSC-CMs carrying LQT3 mutation assessed as shortening of action potential duration; assay type: functional, Homo sapiens; settings: ipsc-cm
Homo sapiens = species: Homo sapiens; experiment: Selectivity index, ratio of IC50 for potassium channel (unknown origin) expressed in CHO cells assessed as reduction in potassium current to IC50 for sodium channel (unknown origin) expressed in HEK cells assessed as reduction in late inward sodium current
[7] = (§2) Antiarrhythmic activity in patient-derived hiPSC-CMs carrying LQT3 mutation assessed as cessation dose for cell beating; assay type: functional, Homo sapiens, iPSC-CM
[8] = (§3) Antiarrhythmic activity in patient-derived hiPSC-CMs carrying LQT3 mutation assessed as fold shortening of action potential duration relative to control; assay type: functional, Homo sapiens, iPSC-CM; also: test concentration or dose not given here
[9] = Inhibition of sodium channel (unknown origin) expressed in HEK cells assessed as reduction in late inward sodium current by automated patch clamp method; assay type: cell-based; settings: Homo sapiens, HEK293
[10] = Antiarrhythmic activity in hiPSC-CMs assessed as dose for induction of early after depolarizations; settings: human, ipsc-cm
[11] = Inhibition of sodium channel (unknown origin) expressed in HEK cells assessed as reduction in peak sodium current by automated patch clamp method; assay type: cell-based; settings: Homo sapiens, HEK293
iPSC-CM [12] = experiment: as §1; assay type: functional; settings: Homo sapiens
iPSC-CM [13] = experiment: as §3; assay type: functional; settings: Homo sapiens
iPSC-CM [14] = experiment: as §2; assay type: functional; settings: Homo sapiens
[15] = Potency index, ratio of mexiletine EC50 to test compound EC50 for antiarrhythmic activity in hiPSC-CMs expressing LQT3 mutation assessed as shortening of action potential duration; assay type: functional, Homo sapiens, iPSC-CM
[16] = Homo sapiens, iPSC-CM, read-out: EC50

## Cc1cccc(C)c1OCC(N)C1CC1.Cl (stereo unspecified)
[1]
  fold change (FC): 2.805
[2]
  Activity: 22 µM
[3]
  IC50: 30.1 µM
[4]
  Activity: Not Active
[5]; [16]
  EC50: 8 µM
[6]; read-out: EC50
  EC50: 0.8 µM
Homo sapiens
  Ratio IC50: 4.1
[7]
  Activity: 200 µM
[8]
  fold change (FC): 1.162
[9]
  IC50: 7.4 µM
[10]
  Activity: 66 µM
[11]
  IC50: 130 µM

## Cl.OCCNC(COc1cc(C(F)(F)F)cc(C(F)(F)F)c1)c1ccccc1 (stereo unspecified)
[1]
  Activity: Not Active
[2]
  Activity: 7.4 µM
[3]
  IC50: 16.8 µM
[4]
  Activity: 66 µM
[6]
  EC50: Not Active
Homo sapiens
  Ratio IC50: 16.5
[7]
  Activity: 22 µM
[8]
  fold change (FC): 1.5
[9]
  IC50: 1.02 µM
[10]
  Activity: Not Active
[11]
  IC50: 45.1 µM

## Cc1cccc(C)c1OCC(N)C(C)(C)C.Cl (stereo unspecified)
[2]
  Activity: 2.5 µM
[3]
  IC50: 27.6 µM
[4]
  Activity: Not Active
[5]; ipsc-cm
  EC50: Not Active
[6]; read-out: EC50
  EC50: < 0.8 µM
Homo sapiens
  Ratio IC50: 2.42
[7]
  Activity: 22 µM
[8]
  fold change (FC): 1.182
[9]
  IC50: 11.4 µM
[10]
  Activity: 7.4 µM
[11]
  IC50: 91.4 µM

## COCCNC(COc1cc(C)cc(C)c1)c1ccccc1.Cl (stereo unspecified)
[1]
  Activity: Not Active
iPSC-CM [12]
  Activity: inactive
[3]
  IC50: 5.1 µM
[4]
  Activity: 200 µM
[6]
  EC50: Not Active
Homo sapiens
  Ratio IC50: 6.8
[7]
  Activity: 200 µM
iPSC-CM [13]
  fold change (FC): inactive
[9]
  IC50: 0.753 µM
[10]
  Activity: Not Active
[11]
  IC50: 38 µM

## CC(=O)NC(C)COc1c(C)cccc1C.Cl (stereo unspecified)
iPSC-CM [12]
  Activity: inactive
[4]
  Activity: Not Active
[5]; ipsc-cm
  EC50: Not Active
[6]
  EC50: Not Active
iPSC-CM [14]
  Activity: inactive
iPSC-CM [13]
  fold change (FC): inactive
[10]
  Activity: Not Active

## Cc1ccccc1OCC(C)N.Cl (stereo unspecified)
[2]
  Activity: 22 µM
[4]
  Activity: Not Active
[5]; [16]
  EC50: 83.9 µM
[6]; read-out: EC50
  EC50: < 0.8 µM
iPSC-CM [14]
  Activity: inactive
[8]
  fold change (FC): 1.284
[10]
  Activity: 200 µM

## CC(N)COc1ccccc1C(F)(F)F.Cl (stereo unspecified)
[2]
  Activity: 133 µM
[4]
  Activity: Not Active
[5]; ipsc-cm
  EC50: Not Active
[6]
  EC50: Not Active
iPSC-CM [14]
  Activity: inactive
[8]
  fold change (FC): 1.375
[10]
  Activity: Not Active

## CCCNC(COc1cccc(C)c1C)c1ccccc1.Cl (stereo unspecified)
[1]
  Activity: Not Active
iPSC-CM [12]
  Activity: inactive
[4]
  Activity: Not Active
[6]
  EC50: Not Active
[7]
  Activity: 133 µM
iPSC-CM [13]
  fold change (FC): inactive
[10]
  Activity: Not Active

## COc1ccccc1OCC(C)N.Cl (stereo unspecified)
iPSC-CM [12]
  Activity: inactive
[4]
  Activity: Not Active
[5]; [16]
  EC50: 97.8 µM
[6]
  EC50: Not Active
iPSC-CM [14]
  Activity: inactive
iPSC-CM [13]
  fold change (FC): inactive
[10]
  Activity: 133 µM

## CCNC(C)COc1c(C)cccc1C.Cl (stereo unspecified)
iPSC-CM [12]
  Activity: inactive
[4]
  Activity: Not Active
[5]; [16]
  EC50: 21.5 µM
[6]
  EC50: Not Active
iPSC-CM [14]
  Activity: inactive
[10]
  Activity: 133 µM

## Cc1cccc(OCC(N)c2ccccc2)c1C.Cl (stereo unspecified)
[2]
  Activity: 22 µM
[3]
  IC50: 9.2 µM
[4]
  Activity: 133 µM
[5]; ipsc-cm
  EC50: Not Active
[6]
  EC50: Not Active
Homo sapiens
  Ratio IC50: 8.9
[7]
  Activity: 66 µM
[8]
  fold change (FC): 1.406
[9]
  IC50: 1.03 µM
[10]
  Activity: Not Active
[11]
  IC50: 10.9 µM

## COc1ccc(C(N)COc2c(C)cccc2C)cc1.Cl (stereo unspecified)
[2]
  Activity: 7.4 µM
[4]
  Activity: 66 µM
[15]
  Ratio EC50: 7
[5]; ipsc-cm
  EC50: Not Active
[6]
  EC50: Not Active
[7]
  Activity: 66 µM
[8]
  fold change (FC): 1.425
[10]
  Activity: Not Active

## Cc1cccc(C)c1OCC(C)NC(=O)c1ccccc1.Cl (stereo unspecified)
[2]
  Activity: 66 µM
[4]
  Activity: 66 µM
[15]
  Ratio EC50: 9
[5]; ipsc-cm
  EC50: Not Active
[6]; read-out: EC50
  EC50: 133 µM
[7]
  Activity: 133 µM
[8]
  fold change (FC): 1.45
[10]
  Activity: Not Active

## Cc1cccc(OCC(C)N)c1.Cl (stereo unspecified)
[2]
  Activity: 200 µM
[4]
  Activity: Not Active
[5]; [16]
  EC50: 27.3 µM
[6]
  EC50: Not Active
iPSC-CM [14]
  Activity: inactive
[8]
  fold change (FC): 1.418
[10]
  Activity: 66 µM

## CCNC(COc1cccc(C)c1C)c1ccccc1.Cl (stereo unspecified)
[1]
  Activity: Not Active
iPSC-CM [12]
  Activity: inactive
[4]
  Activity: 133 µM
[6]
  EC50: Not Active
[7]
  Activity: 22 µM
iPSC-CM [13]
  fold change (FC): inactive
[10]
  Activity: Not Active

## Cc1cc(C)cc(OCC(N)C2CC2)c1.Cl (stereo unspecified)
[1]
  fold change (FC): 2.12
[2]
  Activity: 22 µM
[3]
  IC50: 45.8 µM
[4]
  Activity: 200 µM
[6]; read-out: EC50
  EC50: 2.06 µM
Homo sapiens
  Ratio IC50: 4.6
[7]
  Activity: 200 µM
[8]
  fold change (FC): 1.15
[9]
  IC50: 10 µM
[10]
  Activity: 66 µM
[11]
  IC50: 76.8 µM

## Cc1cccc(C)c1OCC(C)Nc1ccccc1.Cl (stereo unspecified)
iPSC-CM [12]
  Activity: inactive
[4]
  Activity: Not Active
[5]; ipsc-cm
  EC50: Not Active
[6]
  EC50: Not Active
iPSC-CM [14]
  Activity: inactive
[10]
  Activity: Not Active

## Cc1cccc(C)c1OCC(N)c1ccc(C(F)(F)F)cc1.Cl (stereo unspecified)
[2]
  Activity: 22 µM
[4]
  Activity: 66 µM
[15]
  Ratio EC50: 7
[5]; ipsc-cm
  EC50: Not Active
[6]; read-out: EC50
  EC50: 1.4 µM
[7]
  Activity: 66 µM
[8]
  fold change (FC): 1.48
[10]
  Activity: Not Active

## Cc1cccc(C)c1OCC(NC(=O)c1ccccc1)c1ccccc1 (stereo unspecified)
[1]
  Activity: Not Active
[2]
  Activity: 66 µM
[4]
  Activity: Not Active
[6]; read-out: EC50
  EC50: 0.8 µM
iPSC-CM [14]
  Activity: inactive
[8]
  fold change (FC): 1.64
[10]
  Activity: Not Active

## CNC(C)COc1c(C)cccc1C.Cl (stereo unspecified)
[3]
  IC50: 44.1 µM
[4]
  Activity: 66 µM
[5]; [16]
  EC50: 7.8 µM
[6]; read-out: EC50
  EC50: 1.5 µM
Homo sapiens
  Ratio IC50: 1.2
[7]
  Activity: 133 µM
[9]
  IC50: 36 µM
[10]
  Activity: 22 µM
[11]
  IC50: 124 µM

## Cc1cc(C)cc(OCC(C)N)c1.Cl (stereo unspecified)
[2]
  Activity: 66 µM
[3]
  IC50: 49.3 µM
[4]
  Activity: Not Active
[5]; [16]
  EC50: 7.7 µM
[6]; read-out: EC50
  EC50: 4.5 µM
Homo sapiens
  Ratio IC50: 2.84
[7]
  Activity: 200 µM
[8]
  fold change (FC): 1.232
[9]
  IC50: 17.3 µM
[10]
  Activity: Not Active
[11]
  IC50: 154 µM

## CCc1ccccc1OCC(C)N.Cl (stereo unspecified)
[2]
  Activity: 22 µM
[4]
  Activity: Not Active
[5]; [16]
  EC50: 23.5 µM
[6]; read-out: EC50
  EC50: 6 µM
iPSC-CM [14]
  Activity: inactive
[8]
  fold change (FC): 1.118
[10]
  Activity: Not Active
